# Source: ChEMBL document CHEMBL1201862, “PubChem BioAssay data set” (2004)
#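 Cultured in 96-well plates, cells were exposed to test compound for 48 hours across five concentrations. The concentration for 50% growth inhibition is given as GI50.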 Activity calls are given as the source filed them. Cut-off read from the data, not from the text of the source: active = GI50 up to about 1.1 µM and inactive = higher.
# Experiments:
# Assay in all cases: DTP human tumour cell line panel, 48 h
# [1] = system: ACHN
# [2] = system: DU-145
# [3] = system: EKVX
# [4] = system: HCC 2998
# [5] = system: HCT-116
# [6] = system: HOP-62
# [7] = system: IGROV-1
# [8] = system: MDA-MB-231
# [9] = system: MDA-N
# [10] = system: NCI-H23
# [11] = system: NCI-H460
# [12] = system: OVCAR-4
# [13] = system: OVCAR-5
# [14] = system: SK-MEL-2
# [15] = system: SK-MEL-5
# [16] = system: SK-OV-3
# [17] = system: SN12C
# [18] = system: TK-10
# [19] = system: UACC-257
# [20] = system: UO-31
SMILES,GI50 [1],GI50 [2],GI50 [3],GI50 [4],GI50 [5],GI50 [6],GI50 [7],GI50 [8],GI50 [9],GI50 [10],GI50 [11],GI50 [12],GI50 [13],GI50 [14],GI50 [15],GI50 [16],GI50 [17],GI50 [18],GI50 [19],GI50 [20]
CCOC(OCC)[C@@H]1C[C@@H]2N(O[C@H](OC3CCCC3(c3ccccc3)c3ccccc3)[C@H](OC(C)=O)[C@@]2(CC)Cc2ccc(OC)c(OC)c2)O1 (stereo not given in full),> 100 µM (inactive),> 100 µM (inactive),> 100 µM (inactive),> 100 µM (inactive),> 100 µM (inactive),> 100 µM (inactive),> 100 µM (inactive),> 100 µM (inactive),> 100 µM (inactive),> 100 µM (inactive),> 100 µM (inactive),> 100 µM (inactive),> 100 µM (inactive),> 100 µM (inactive),> 100 µM (inactive),> 100 µM (inactive),> 100 µM (inactive),> 100 µM (inactive),> 100 µM (inactive),> 100 µM (inactive)
CC(C)(C)OC(=O)NCC(=O)N1CCCN(C(=O)CNC(=O)OC(C)(C)C)CC1,> 100 µM (inactive),> 100 µM (inactive),> 100 µM (inactive),> 100 µM (inactive),> 100 µM (inactive),> 100 µM (inactive),> 100 µM (inactive),> 100 µM (inactive),> 100 µM (inactive),> 100 µM (inactive),> 100 µM (inactive),> 100 µM (inactive),> 100 µM (inactive),> 100 µM (inactive),> 100 µM (inactive),> 100 µM (inactive),> 100 µM (inactive),> 100 µM (inactive),> 100 µM (inactive),> 100 µM (inactive)
COc1cc2c(cc1O)C(Cc1ccc(OCc3ccccc3)c(OCc3ccccc3)c1)N(C(=O)NCCc1ccccc1)CC2 (stereo not given),> 100 µM (inactive),> 100 µM (inactive),> 100 µM (inactive),86.9 µM (inactive),45.1 µM (inactive),> 100 µM (inactive),> 100 µM (inactive),> 100 µM (inactive),> 100 µM (inactive),> 100 µM (inactive),> 100 µM (inactive),78.9 µM (inactive),> 100 µM (inactive),> 100 µM (inactive),33 µM (inactive),> 100 µM (inactive),> 100 µM (inactive),> 100 µM (inactive),> 100 µM (inactive),69 µM (inactive)
Cc1n(CC(C)C)c2c([n+]1C)C(=O)c1ccccc1C2=O,0.432 µM (active),0.203 µM (active),0.0631 µM (active),0.108 µM (active),0.0494 µM (active),0.131 µM (active),0.0224 µM (active),0.0486 µM (active),0.166 µM (active),0.0374 µM (active),0.135 µM (active),0.0594 µM (active),0.244 µM (active),0.13 µM (active),0.0473 µM (active),0.35 µM (active),0.0255 µM (active),0.411 µM (active),0.0513 µM (active),1.29 µM (inactive)
COc1cc2c(cc1C)NC(=O)/C2=C/c1c(Cl)n(C)c2ccccc12,10.3 µM (inactive),10.3 µM (inactive),6.68 µM (inactive),5.18 µM (inactive),5.46 µM (inactive),11.1 µM (inactive),3.81 µM (inactive),12.9 µM (inactive),2.15 µM (inactive),6.27 µM (inactive),6.71 µM (inactive),6.87 µM (inactive),12.5 µM (inactive),9.66 µM (inactive),4.79 µM (inactive),12.4 µM (inactive),12.8 µM (inactive),12.4 µM (inactive),11.9 µM (inactive),7.05 µM (inactive)
